From patent publication US20110250133A1, “GASTRIN […] PEPTIDE COMPOUNDS” (priority 2003, published 2011)
Entries after “also recorded” stand apart in the source; their conditions may differ.

Columns and labels:
[1] = system: PC-3 prostate cancer cells; assay: Effect of drug treatment on GRP receptor binding (177Lu-AMBA) in PC-3 cells; format: cell-based, human; settings: for change in 177Lu-AMBA binding (GRP receptor specific signal per cell) vs untreated controls, PC-3: Table 25, range 0.001-0.1 μM; for decrease in 177Lu-AMBA binding (GRP receptor specific signal per cell): relative to untreated control, drug 0.1-1.0 μM (gefitinib 0.1-10 μM)
Protocol: (§1) RPMI 1640 supplemented with 20 mM HEPES, 0.1% BSA (w/v), 0.5 mM PMSF (AEBSF), bacitracin (50 mg/500 ml), pH 7.4.
(§2) Incubations were stopped by the addition of 200 μL of ice-cold binding buffer. Plates were washed three more times with binding buffer, 140 μL of scintillation fluid was added to each well, the plates were sealed and analyzed on a Microβ plate reader (Microbeta Trilux, Perkin-Elmer).
PC-3 (human prostate adenocarcinoma, bone metastasis, AR-, ER) were obtained from the American Type Culture Collection. The growth medium for PC-3 cells is RPMI 1640 (10-041-CM, Mediatech, Inc), supplemented with 10% heat inactivated FBS (Hyclone, SH30070.03) and PSF-1× (as in Example LXVI). The binding buffer, lapatinib solutions, treatment method and cell binding assay is the same as in Example LXVI.

[2] = system: T47D human breast cancer cells; assay: Effect of drug treatment on GRP receptor binding (177Lu-AMBA) in T47D cells; format: cell-based; settings: for change in 177Lu-AMBA binding (GRP receptor specific signal per cell) vs untreated controls, T47D: Table 25, range 0.001-0.1 μM; for decrease in 177Lu-AMBA binding (GRP receptor specific signal per cell): drug 0.1-1.0 μM (4-OH Tamoxifen 0.001-0.1 μM)
Text: T-47D breast cancer cells (human metastatic mammary gland ductal adenocarcinoma isolated from pleural effusion, ER+, PR+) were obtained from the American Type Culture Collection.

[3] = system: BT-474 human breast cancer cells; assay: Effect of drug treatment on GRP receptor binding (177Lu-AMBA) in BT-474 cells; format: cell-based; settings: for change in 177Lu-AMBA binding (GRP receptor specific signal per cell) vs untreated controls, BT-474: Table 25, range 0.001-0.1 μM; for change in GRP receptor specific signal per cell (177Lu-AMBA binding): drug 0.1-1.0 μM (gefitinib 0.1-10 μM); for change in 177Lu-AMBA uptake (GRP-R) on a viable cell basis, BT-474: drug 0.1-1.0 μM, ↑ increase, ↓ decrease vs untreated
Protocol: BT-474 breast cancer cells (human primary invasive ductal carcinoma; ER+, PR+, amplified HER2/neu+) were obtained from the American Type Culture Collection. The growth medium for BT-474 cells is Hybri-care Medium (Cat No: 46X, ATCC) supplemented with 10% heat inactivated FBS (Hyclone, SH30070.03), 0.2% NaHCO3, and antibiotic/antimycotic “PSF-1×” (GibcoBRL, 15240-062) for a final concentration of penicillin-streptomycin (1×, 100 units/mL), and fungizone (0.25 μg/mL). […] Cells for binding experiments were plated on Day 0 at 5.6×10^4 cells/cm^2 in 96-well white/clear bottom microtiter plates (Falcon Optilux-I), or 96 well black/clear collagen I cellware plates (Beckton Dickinson Biocoat).
as §1, §2
Treatment: BT-474 cells were plated on Day 0 and treated on Days 1 and 2 (DT1, DT2).

[4] = target: T1, NMB-R (Rattus norvegicus, UniProt P24053); assay: Competition with 125I-NMB for NMB-R in C6 cells (linker specificity); format: binding, rodent; settings: for receptor subtype preference (GRP-R vs NMB-R): from IC50 with 125I-NMB (C6) and 125I-BBN (PC3), cut off 10x the IC50 of [Tyr4]-BBN; for GRP-R and NMB-R (binds both) / GRP-R (GRP-R preferring): yes / —, cut off 10x the IC50 of [Tyr4]-BBN with 125I-NMB on C6 cells; for receptor preference in words (GRP-R / GRP-R and NMB-R): wrapped cell: 'No selective preference' or 'preference for NMB-R';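 on all read-outs here: test cells: rodent glioblastoma C6 line carrying NMB-R, human prostate cancer PC3 line carrying GRP-R, affinity fitted by one-site competition nonlinear regression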
T1 construct: C6, an NMB-R expressing rodent glioblastoma cell line; host or cells: C6 glioblastoma cells, intact adherent cells
T1 sequence (P24053 1-390): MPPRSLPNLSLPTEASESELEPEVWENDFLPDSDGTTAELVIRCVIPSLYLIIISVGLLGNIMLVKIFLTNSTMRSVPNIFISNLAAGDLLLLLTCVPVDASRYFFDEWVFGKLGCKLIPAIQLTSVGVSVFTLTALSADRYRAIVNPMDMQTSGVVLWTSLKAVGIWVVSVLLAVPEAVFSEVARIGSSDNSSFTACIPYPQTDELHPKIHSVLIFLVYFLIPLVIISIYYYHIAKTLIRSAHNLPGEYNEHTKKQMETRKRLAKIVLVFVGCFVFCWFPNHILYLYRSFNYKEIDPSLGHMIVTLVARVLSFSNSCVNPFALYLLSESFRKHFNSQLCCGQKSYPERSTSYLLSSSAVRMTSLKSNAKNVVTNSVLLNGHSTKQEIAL
Protocol: Two cell lines, C6, an NMB-R expressing rodent glioblastoma cell line and PC3, a GRP-R expressing human prostate cancer cell line, were used in this assay. The affinity of various unlabeled compounds for each receptor subtype (NMB-R and GRP-R) was determined indirectly by measuring its ability to compete with the binding of ^125I-NMB or ^125I-BBN to its corresponding receptors in C6 and PC3 cells.
Cells for the assays were plated at a concentration of 9.6×10^4/well in 48 well poly-lysine coated plates (Beckton Dickinson Biocoat). PC3 were obtained from ATCC(CRL-1435) and cultured in RPMI 1640 (ATCC) supplemented with 2 mM L-glutamine, 1.5 g/L Sodium bicarbonate, 10 mM HEPES and 10% FBS. […] PC3 cells for the assays were plated at a concentration of 2.0×10^4 cells/well in 96-well white/clear bottom plates (Falcon Optilux-I). Plates were used for the assays on day 2 of the post-plating.
RPMI 1640 (ATCC) containing 25 mM HEPES, 0.2% BSA fraction V, 1.0 mM AEBSF (CAS # 3087-99-7) and 0.1% Bacitracin (CAS # 1405-87-4), pH 7.4. Custom made ^125I-[Tyr^0]NMB, >2.0 Ci/μmole (Amersham Life Science) [^125I-NMB] and commercially available ^125I-[Tyr^4]BBN, >2.0 Ci/μmole (Perkin Elmer Life Science) [^125I-BBN] were used as radioligands.
Using a 48-well plate assay system (for C6 study) competition experiments were performed using ^125I-NMB. […] Selection of compounds for the assay was based on linker subtype.
The binding parameters obtained from the studies were analyzed using a one-site competition non-linear regression analysis with GraphPad Prism. The relative affinity of various compounds for NMB-R in C6 cells were compared with those obtained using commercially available [Tyr^4]-BBN and [Tyr^0]-NMB. To distinguish the GRP-R preferring compounds from NMB-R plus GRP-R preferring compounds, IC50 values obtained for each compound were compared with those obtained from [Tyr^4-BBN with ^125I-NMB on C6 cells.

[5] = T-47D, relative to untreated control

**Q.** How did the “change in 177Lu-AMBA binding (GRP receptor specific signal per cell) vs untreated controls, PC-3” value [1] turn out when `CC/C(=C(\c1ccc(O)cc1)c1ccc(OCCN(C)C)cc1)c1ccccc1` [Compounds 4-OH-Tamoxifen] was run?
**A.** 0%

**Q.** What about the “change in 177Lu-AMBA binding (GRP receptor specific signal per cell) vs untreated controls, T47D” value [2] of the same molecule?
**A.** −35%

**Q.** And the “change in 177Lu-AMBA binding (GRP receptor specific signal per cell) vs untreated controls, BT-474” value [3]?
**A.** −73%

**Q.** How did the “change in GRP receptor specific signal per cell (177Lu-AMBA binding)” value (from here on “change … per cell (177Lu-AMBA binding)”) ([1]; PC-3, drug 0.1-1.0 μM (4-OH Tamoxifen 0.001-0.1 μM)) turn out when `C[C@]12CC[C@@H]3c4ccc(O)cc4CC[C@H]3[C@@H]1CC[C@@H]2O` [β2-estradiol] was run?
**A.** no change

**Q.** What about the “change in 177Lu-AMBA binding (GRP receptor specific signal per cell) vs untreated controls, PC-3” value [1] of the same molecule?
**A.** 0%

**Q.** What about the “change … per cell (177Lu-AMBA binding)” value ([2]; T-47D) of the same molecule?
**A.** did not change

**Q.** And the “change in 177Lu-AMBA binding (GRP receptor specific signal per cell) vs untreated controls, T47D” value [2]?
**A.** 0%

**Q.** What about the “increase in 177Lu-AMBA binding (GRP receptor specific signal per cell)” value ([3]; BT-474, relative to untreated control, drug 0.1-1.0 μM (β2-estradiol 1 nM)) of the same molecule?
**A.** 47%

**Q.** What about the “change in 177Lu-AMBA binding (GRP receptor specific signal per cell) vs untreated controls, BT-474” value [3] of the same molecule?
**A.** 47%

**Q.** DO3A-monoamide-Abu4-QWAVGHLM-NH2 was tested. Which “receptor subtype preference (GRP-R vs NMB-R)” value [4] did it give?
**A.** dual affinity for both GRP-R and NMB-R

**Q.** What about the “GRP-R and NMB-R (binds both)” value [4] of the same molecule?
**A.** yes

**Q.** With DO3A-monoamide-Aoc-QWAVGHL-Nle-NH2 as the molecule, how does the “receptor subtype preference (GRP-R vs NMB-R)” value [4] read?
**A.** dual affinity for both GRP-R and NMB-R

**Q.** What about the “GRP-R and NMB-R (binds both)” value [4] of the same molecule?
**A.** Yes

**Q.** What does the source list for DO3A-monoamide-Apa3-QWAVGHLM-NH2?
**A.** receptor subtype preference (GRP-R vs NMB-R) [4]: dual affinity for both GRP-R and NMB-R; GRP-R and NMB-R (binds both) [4]: yes

**Q.** How did the “receptor subtype preference (GRP-R vs NMB-R)” value [4] turn out when DO3A-monoamide-Cha-Cha-QWAVGHLM-NH2 was run?
**A.** selective affinity towards GRP-R

**Q.** What about the “GRP-R (GRP-R preferring)” value [4] of the same molecule?
**A.** yes

**Q.** Which results are given for DO3A-monoamide-Nal1-Bip-QWAVGHLM-NH2?
**A.** receptor subtype preference (GRP-R vs NMB-R) [4]: selective affinity towards GRP-R; GRP-R (GRP-R preferring) [4]: yes

**Q.** With DO3A-monoamide-Nal1-Bpa4-QWAVGHLM-NH2 as the molecule, how does the “receptor subtype preference (GRP-R vs NMB-R)” value [4] read?
**A.** selective affinity towards GRP-R

**Q.** What about the “GRP-R (GRP-R preferring)” value [4] of the same molecule?
**A.** yes

**Q.** “Gln-Trp-Ala-Val-Gly-His-Leu-Met-NH2 [BBN7-14]” was tested. Which “receptor subtype preference (GRP-R vs NMB-R)” value [4] did it give?
**A.** did not show any preference

**Q.** What about the “receptor preference in words (GRP-R / GRP-R and NMB-R)” value [4] of the same molecule?
**A.** No selective

**Q.** “N-[4-[[[[4,7,10-Tris(carboxymethyl)-1,4,7,10-tetraazacyclododec-1-yl]acetyl]glycyl]amino]-3-methoxybenzoyl]-L-glutaminyl-L-tryptophyl-1-alanyl-L-valyl-glycyl-L-histidyl-L-leucyl-L-methioninamide [Compound L240]” was tested. Which “receptor subtype preference (GRP-R vs NMB-R)” value [4] did it give?
**A.** selective affinity to GRP-R

**Q.** Which results are given for “N-[(3β,5β,12α)-3-[[[4,7,10-Tris(carboxymethyl)-1,4,7,10-tetraazacyclododec-1-yl]acetyl]amino]-4-aminobenzoyl-glycyl-L-glutaminyl-L-tryptophyl-L-alanyl-L-valyl-glycyl-L-histidyl-L-leucyl-L-methioninamide [Compound L204]”?
**A.** receptor subtype preference (GRP-R vs NMB-R) [4]: selective affinity to NMB-R; also recorded: favor the NMB subtype; receptor preference in words (GRP-R / GRP-R and NMB-R) [4]: preference for NMB-R

**Q.** How did the “receptor subtype preference (GRP-R vs NMB-R)” value [4] turn out when “N-[(3β,5β,12α)-3-[[[4,7,10-Tris(carboxymethyl)-1,4,7,10-tetraazacyclododec-1-yl]acetyl]amino]-glycyl-4-aminobenzoyl-L-leucyl-L-tryptophyl-L-alanyl-L-threonyll-glycyl-L-histidyl-L-phenylalanyl-L-methioninamide [Compound L227]” was run?
**A.** affinity to GRP-R in addition to its inherent NMB-R affinity

**Q.** anastrozole was tested. Which “decrease in 177Lu-AMBA binding (GRP receptor specific signal per cell)” value ([1]; PC-3) did it give?
**A.** up to 10%

**Q.** What about the “decrease in 177Lu-AMBA binding (GRP receptor specific signal per cell)” value [2, 5] of the same molecule?
**A.** up to 10%

**Q.** What about the “change … per cell (177Lu-AMBA binding)” value ([3]; BT-474) of the same molecule?
**A.** no change

**Q.** And the “change in 177Lu-AMBA uptake (GRP-R) on a viable cell basis, BT-474” value [3]?
**A.** NC (NC: Little(<10%) or no change in Lu-AMBA uptake)

**Q.** bortezomib was tested. Which “decrease in 177Lu-AMBA binding (GRP receptor specific signal per cell)” value ([1]; PC-3) did it give?
**A.** up to 60%

**Q.** What about the “decrease in 177Lu-AMBA binding (GRP receptor specific signal per cell)” value [2, 5] of the same molecule?
**A.** up to 50%

**Q.** And the “decrease in 177Lu-AMBA binding (GRP receptor specific signal per cell)” value ([3]; BT-474, relative to untreated control, drug 0.1-1.0 μM (4-OH Tamoxifen 0.001-0.1 μM))?
**A.** up to 50%

**Q.** For erlotinib, which “decrease in 177Lu-AMBA binding (GRP receptor specific signal per cell)” value ([1]; PC-3) is on record?
**A.** 5-20%

**Q.** And the “increase in 177Lu-AMBA binding (GRP receptor specific signal per cell)” value ([2]; T-47D, relative to untreated control, drug 0.1-1.0 μM (gefitinib 0.1-10 μM))?
**A.** 5-20%

**Q.** What about the “change … per cell (177Lu-AMBA binding)” value ([3]; BT-474) of the same molecule?
**A.** no change

**Q.** And the “change in 177Lu-AMBA uptake (GRP-R) on a viable cell basis, BT-474” value [3]?
**A.** NC (NC: Little(<10%) or no change in Lu-AMBA uptake)
